From ChEMBL document CHEMBL5244223, “l,8-Naphthalimide based DNA intercalators and anticancer agents. A systematic review from 2007 to 2017” (Eur J Med Chem, 2018)

Assays:
A549 = experiment: Cytotoxicity against human A549 cells assessed as inhibition of cell growth incubated for 48 hrs by MTT assay; assay type: functional, cell-based; conditions: A549, 48 h
HeLa [1] = experiment: Cytotoxicity against human HeLa cells assessed as inhibition of cell growth incubated for 48 hrs by MTT assay; assay type: functional, cell-based
CCRF-CEM = experiment: Antiproliferative activity against human CEM cells assessed as inhibition of cell proliferation incubated for 48 hrs by coulter counter assay; assay type: functional, cell-based
[2] = Antiproliferative activity against human HMEC-1 cells assessed as inhibition of cell proliferation incubated for 48 hrs by coulter counter assay; assay type: toxicity, cell-based
HeLa [3] = experiment: Antiproliferative activity against human HeLa cells assessed as inhibition of cell proliferation incubated for 48 hrs by coulter counter assay; assay type: functional, cell-based
L1210 = experiment: Antiproliferative activity against mouse L1210 cells assessed as inhibition of cell proliferation incubated for 48 hrs by coulter counter assay; assay type: functional, cell-based; conditions: L1210, 48 h
HCT-116 = experiment: Antiproliferative activity against human HCT-116 cells assessed as inhibition of cell proliferation incubated for 48 hrs by MTT assay; assay type: functional, cell-based; conditions: HCT-116, 48 h
HepG2 = experiment: Antiproliferative activity against human HepG2 cells assessed as inhibition of cell proliferation incubated for 48 hrs by MTT assay; assay type: functional, cell-based; conditions: HepG2, 48 h
SMMC-7721 = experiment: Antiproliferative activity against human SMMC-7721 cells assessed as inhibition of cell proliferation incubated for 48 hrs by MTT assay; assay type: functional, cell-based; conditions: SMMC-7721, 48 h
K562 = experiment: Antiproliferative activity against human K562 cells assessed as inhibition of cell proliferation incubated for 48 hrs by MTT assay; assay type: functional, cell-based; conditions: K562, 48 h
MDA-MB-231 = experiment: Antiproliferative activity against human MDA-MB-231 cells assessed as inhibition of cell proliferation incubated for 48 hrs by MTT assay; assay type: functional, cell-based; conditions: MDA-MB-231, 48 h

Row | IC50 (HepG2) | IC50 (SMMC-7721) | SMILES | IC50 (A549) | IC50 (HeLa [1]) | further results
1 | – | – | CCOc1cc(OCC)cc(-c2cc(C(F)(F)F)nn2-c2ccc3c4c(cccc24)C(=O)N(CCN(C)C)C3=O)c1 | 5.06 µM | 5.06 µM | –
2 | – | – | CCOP(=O)(CC(=O)NCn1cc(CN2C(=O)c3cccc4cc([N+](=O)[O-])cc(c34)C2=O)nn1)OCC | – | – | IC50 (CCRF-CEM): > 250 µM; IC50 at 48 h [2]: > 250 µM; IC50 (HeLa [3]): > 250 µM; IC50 (L1210): > 250 µM
3 | – | – | CCCOc1cccc(-c2cc(C(F)(F)F)nn2-c2ccc3c4c(cccc24)C(=O)N(CCN(C)C)C3=O)c1 | 5.06 µM | 5.06 µM | –
4 | – | – | CCOc1ccccc1-c1cc(C(F)(F)F)nn1-c1ccc2c3c(cccc13)C(=O)N(CCN(C)C)C2=O | 5.06 µM | 5.06 µM | –
5 | 22.1 µM | 22.1 µM | COC(=O)c1ccc2c3c(cccc13)C(=O)N(CCN(C)C)C2=O | – | – | IC50 (HCT-116): > 50 µM; IC50 (K562): > 50 µM
6 | > 50 µM | > 50 µM | CCCCCCOC(=O)c1ccc2c3c(cccc13)C(=O)N(CCN(C)C)C2=O | – | – | IC50 (HCT-116): > 50 µM; IC50 (K562): > 50 µM
7 | – | – | COc1cccc(-c2cc(C(F)(F)F)nn2-c2ccc3c4c(cccc24)C(=O)N(CCN(C)C)C3=O)c1 | 5.06 µM | 5.06 µM | –
8 | – | – | CCOP(=O)(Cn1cc(CN2C(=O)c3cccc4cccc(c34)C2=O)nn1)OCC | – | – | IC50 (CCRF-CEM): > 250 µM; IC50 at 48 h [2]: > 250 µM; IC50 (HeLa [3]): > 250 µM; IC50 (L1210): > 250 µM
9 | > 50 µM | > 50 µM | CCCCCCCCCCCCCCOC(=O)c1ccc2c3c(cccc13)C(=O)N(CCN(C)C)C2=O | – | – | IC50 (HCT-116): > 50 µM; IC50 (K562): > 50 µM
10 | – | – | CCOP(=O)(CCCCn1cc(CN2C(=O)c3cccc4cccc(c34)C2=O)nn1)OCC | – | – | IC50 (CCRF-CEM): > 250 µM; IC50 at 48 h [2]: > 250 µM; IC50 (HeLa [3]): > 250 µM; IC50 (L1210): > 250 µM
11 | 1.12 µM | 1.12 µM | CN(C)CCNc1ncnc2c1cc1c3c(cccc32)C(=O)N(CCN(C)C)C1=O | – | – | IC50 (MDA-MB-231): 1.12 µM
12 | – | – | CCOP(=O)(CCOCn1cc(CN2C(=O)c3cccc4c(Br)ccc(c34)C2=O)nn1)OCC | – | – | IC50 (CCRF-CEM): > 250 µM; IC50 at 48 h [2]: > 250 µM; IC50 (HeLa [3]): > 250 µM; IC50 (L1210): > 250 µM
13 | 1.12 µM | 1.12 µM | CN(C)CCN1C(=O)c2cccc3c2c(cc2c(NCCCCN)ncnc23)C1=O | – | – | IC50 (MDA-MB-231): 1.12 µM
14 | – | – | CN(C)CCN1C(=O)c2cccc3c(-n4nc(C(F)(F)F)cc4-c4ccccc4)ccc(c23)C1=O | 5.06 µM | 5.06 µM | –
15 | 2.86 µM | – | NCCCNCCCNCC(=O)NCCCN1C(=O)c2cccc3cccc(c23)C1=O | – | – | IC50 (HCT-116): 2.86 µM; IC50 (MDA-MB-231): 2.86 µM; IC50 (K562): 2.86 µM
16 | 2.64 µM | 2.64 µM | O=C1c2cccc3c2c(cc2c(=O)[nH]cnc23)C(=O)N1CCCCN1CCOCC1 | – | – | IC50 (MDA-MB-231): 2.64 µM
17 | 2.64 µM | 2.64 µM | CN(C)CCN1C(=O)c2cccc3c2c(cc2c(=O)[nH]cnc23)C1=O | – | – | IC50 (MDA-MB-231): 2.64 µM
18 | – | – | Cc1ccc(-c2cc(C(F)(F)F)nn2-c2ccc3c4c(cccc24)C(=O)N(CCN(C)C)C3=O)cc1 | 5.06 µM | 5.06 µM | –
19 | – | – | CCCOc1ccc(-c2cc(C(F)(F)F)nn2-c2ccc3c4c(cccc24)C(=O)N(CCN(C)C)C3=O)cc1 | 5.06 µM | 5.06 µM | –
20 | – | – | COc1ccc(-c2cc(C(F)(F)F)nn2-c2ccc3c4c(cccc24)C(=O)N(CCN(C)C)C3=O)cc1 | 5.06 µM | 5.06 µM | –
21 | – | – | CCCCOc1ccc(-c2cc(C(F)(F)F)nn2-c2ccc3c4c(cccc24)C(=O)N(CCN(C)C)C3=O)cc1 | 5.06 µM | 5.06 µM | –
22 | – | – | CCCOc1cc(OCCC)cc(-c2cc(C(F)(F)F)nn2-c2ccc3c4c(cccc24)C(=O)N(CCN(C)C)C3=O)c1 | 5.06 µM | 5.06 µM | –
23 | – | – | CCCCOc1ccccc1-c1cc(C(F)(F)F)nn1-c1ccc2c3c(cccc13)C(=O)N(CCN(C)C)C2=O | 5.06 µM | 5.06 µM | –
24 | 1.12 µM | 1.12 µM | CN(C)CCN1C(=O)c2cccc3c2c(cc2c(NCCCCN4CCCC4)ncnc23)C1=O | – | – | IC50 (MDA-MB-231): 1.12 µM

Row | IC50 (HepG2) | IC50 (SMMC-7721) | SMILES | IC50 (A549) | IC50 (HeLa [1]) | further results
25 | 2.64 µM | 2.64 µM | CCCCN1C(=O)c2cccc3c2c(cc2c(=O)[nH]cnc23)C1=O | – | – | IC50 (MDA-MB-231): 2.64 µM
26 | – | – | COc1cc(-c2cc(C(F)(F)F)nn2-c2ccc3c4c(cccc24)C(=O)N(CCN(C)C)C3=O)cc(OC)c1OC | 5.06 µM | 5.06 µM | –
27 | 2.64 µM | 2.64 µM | NCCCCN1C(=O)c2cccc3c2c(cc2c(=O)[nH]cnc23)C1=O | – | – | IC50 (MDA-MB-231): 2.64 µM
28 | 2.86 µM | – | NCCCNCC(=O)NCCCN1C(=O)c2cccc3cccc(c23)C1=O | – | – | IC50 (HCT-116): 2.86 µM; IC50 (MDA-MB-231): 2.86 µM; IC50 (K562): 2.86 µM
29 | – | – | CCOc1ccc(-c2cc(C(F)(F)F)nn2-c2ccc3c4c(cccc24)C(=O)N(CCN(C)C)C3=O)cc1 | 5.06 µM | 5.06 µM | –
30 | > 50 µM | > 50 µM | CCCCCCCCOC(=O)c1ccc2c3c(cccc13)C(=O)N(CCN(C)C)C2=O | – | – | IC50 (HCT-116): > 50 µM; IC50 (K562): > 50 µM
31 | – | – | CCCOc1ccccc1-c1cc(C(F)(F)F)nn1-c1ccc2c3c(cccc13)C(=O)N(CCN(C)C)C2=O | 5.06 µM | 5.06 µM | –
32 | 25.9 µM | 13.7 µM | CCOC(=O)c1ccc2c3c(cccc13)C(=O)N(CCN(C)C)C2=O | – | – | IC50 (HCT-116): > 50 µM; IC50 (K562): > 50 µM
33 | – | – | COc1ccccc1-c1cc(C(F)(F)F)nn1-c1ccc2c3c(cccc13)C(=O)N(CCN(C)C)C2=O | 5.06 µM | 5.06 µM | –
34 | – | – | CCOc1cccc(-c2cc(C(F)(F)F)nn2-c2ccc3c4c(cccc24)C(=O)N(CCN(C)C)C3=O)c1 | 5.06 µM | 5.06 µM | –
35 | 2.64 µM | 2.64 µM | NCCCNCCCN1C(=O)c2cccc3c2c(cc2c(=O)[nH]cnc23)C1=O | – | – | IC50 (MDA-MB-231): 2.64 µM
36 | 1.57 µM | 1.57 µM | CN(C)CCN1C(=O)c2cccc3c2c(cc2c(NCCCNCCCN)ncnc23)C1=O | – | – | IC50 (MDA-MB-231): 1.57 µM
37 | 1.61 µM | 1.61 µM | NCCCN1C(=O)c2cccc3cccc(c23)C1=O | – | – | –
38 | – | – | COc1cc(OC)cc(-c2cc(C(F)(F)F)nn2-c2ccc3c4c(cccc24)C(=O)N(CCN(C)C)C3=O)c1 | 5.06 µM | 5.06 µM | –
39 | – | – | CCCCOc1cccc(-c2cc(C(F)(F)F)nn2-c2ccc3c4c(cccc24)C(=O)N(CCN(C)C)C3=O)c1 | 5.06 µM | 5.06 µM | –
40 | 1.12 µM | 1.12 µM | CN(C)CCN1C(=O)c2cccc3c2c(cc2c(NCCCN4CCOCC4)ncnc23)C1=O | – | – | IC50 (MDA-MB-231): 1.12 µM
41 | > 50 µM | > 50 µM | CCCOC(=O)c1ccc2c3c(cccc13)C(=O)N(CCN(C)C)C2=O | – | – | IC50 (HCT-116): > 50 µM; IC50 (K562): > 50 µM
42 | 1.61 µM | 1.61 µM | NCCCNCCCN1C(=O)c2cccc3cccc(c23)C1=O | – | – | –
43 | > 50 µM | > 50 µM | CCCCCOC(=O)c1ccc2c3c(cccc13)C(=O)N(CCN(C)C)C2=O | – | – | IC50 (HCT-116): > 50 µM; IC50 (K562): > 50 µM
44 | > 50 µM | > 50 µM | CCCCOC(=O)c1ccc2c3c(cccc13)C(=O)N(CCN(C)C)C2=O | – | – | IC50 (HCT-116): > 50 µM; IC50 (K562): > 50 µM
45 | – | – | COc1ccc(-c2cc(C(F)(F)F)nn2-c2ccc3c4c(cccc24)C(=O)N(CCN(C)C)C3=O)cc1OC | 5.06 µM | 5.06 µM | –
46 | – | – | CCCCOc1cc(OCCCC)cc(-c2cc(C(F)(F)F)nn2-c2ccc3c4c(cccc24)C(=O)N(CCN(C)C)C3=O)c1 | 5.06 µM | 5.06 µM | –
47 | 2.86 µM | – | NCCCCNCCCCNCCCCNCC(=O)NCCCN1C(=O)c2cccc3cccc(c23)C1=O | – | – | IC50 (HCT-116): 2.86 µM; IC50 (MDA-MB-231): 2.86 µM; IC50 (K562): 2.86 µM
